Results from the NIST ThermoML archive (doi:10.1016/j.jct.2015.05.024).
± gives the expanded uncertainty stated by the source.

Experiment: xn = mol fraction of the nth substance listed
Conditions: 100 kPa, Liquid, Vibrating tube method

OCCOCCOCCO [triethylene glycol] + O
mass density [kg/m3]
Conditions | 323.15 K | 328.15 K | 333.15 K
x1 = 0.0107 | – | 996.693 ± 0.22 | 994.065 ± 0.22
x1 = 0.02047 | – | 1005.64 ± 0.2 | 1002.89 ± 0.19
x1 = 0.03972 | – | 1020.67 ± 0.19 | 1017.67 ± 0.18
x1 = 0.04979 | – | 1027.35 ± 0.16 | 1024.24 ± 0.16
x1 = 0.06996 | – | 1038.74 ± 0.15 | 1035.42 ± 0.15
x1 = 0.09424 | – | 1049.58 ± 0.14 | 1046.06 ± 0.14
x1 = 0.1481 | – | 1065.82 ± 0.13 | 1062.02 ± 0.13
x1 = 0.2006 | – | 1075.2 ± 0.13 | 1071.28 ± 0.13
x1 = 0.2502 | – | 1080.82 ± 0.14 | 1076.84 ± 0.14
x1 = 0.2988 | 1088.45 ± 0.14 | 1084.52 ± 0.14 | 1080.53 ± 0.14
x1 = 0.3492 | 1091.15 ± 0.15 | 1087.21 ± 0.15 | 1083.23 ± 0.15
x1 = 0.3925 | 1092.88 ± 0.15 | 1088.93 ± 0.15 | 1084.95 ± 0.15
x1 = 0.4502 | 1094.61 ± 0.16 | 1090.66 ± 0.16 | 1086.7 ± 0.16
x1 = 0.4877 | 1095.48 ± 0.17 | 1091.55 ± 0.17 | 1087.58 ± 0.17
x1 = 0.5004 | 1095.75 ± 0.17 | 1091.81 ± 0.17 | 1087.85 ± 0.17
x1 = 0.5739 | 1097.01 ± 0.19 | 1093.08 ± 0.18 | 1089.13 ± 0.18
x1 = 0.58 | 1097.09 ± 0.19 | 1093.16 ± 0.19 | 1089.21 ± 0.18
x1 = 0.6465 | 1097.92 ± 0.2 | 1093.99 ± 0.2 | 1090.05 ± 0.2
x1 = 0.651 | 1097.96 ± 0.2 | 1094.04 ± 0.2 | 1090.1 ± 0.2
x1 = 0.7008 | 1098.44 ± 0.21 | 1094.53 ± 0.21 | 1090.59 ± 0.21
x1 = 0.7471 | 1098.82 ± 0.23 | 1094.91 ± 0.22 | 1090.97 ± 0.22
x1 = 0.7677 | 1098.97 ± 0.23 | 1095.06 ± 0.23 | 1091.13 ± 0.23
x1 = 0.82 | 1099.31 ± 0.24 | 1095.4 ± 0.24 | 1091.47 ± 0.24
x1 = 0.8623 | 1099.56 ± 0.26 | 1095.64 ± 0.26 | 1091.71 ± 0.25
x1 = 0.8792 | 1099.64 ± 0.27 | 1095.73 ± 0.26 | 1091.81 ± 0.26
x1 = 0.8975 | 1099.74 ± 0.27 | 1095.83 ± 0.27 | 1091.9 ± 0.27
x1 = 0.9203 | 1099.85 ± 0.28 | 1095.94 ± 0.28 | 1092.01 ± 0.27
x1 = 0.9514 | 1100 ± 0.29 | 1096.09 ± 0.29 | 1092.16 ± 0.28
x1 = 0.9692 | 1100.08 ± 0.3 | 1096.17 ± 0.29 | 1092.24 ± 0.29
x1 = 1 | 1100.22 ± 0.31 | 1096.3 ± 0.31 | 1092.38 ± 0.3
